Source: paper PMC9686657, “Protection against Oxidative Stress and Metabolic Alterations by Synthetic Peptides Derived from Erythrina edulis Seed Protein” (Antioxidants, 2022)
Read-outs that look alike come from different tables or passages of the source. Ends that are not written are not given here. Peptide text beside a SMILES is read from it.

Assays:
ACE from rabbit lung = molecular target: T1, ACE from rabbit lung (Oryctolagus cuniculus, UniProt P12822); assay: ACE inhibitory activity (HHL substrate); type: biochemical; conditions: n.d. = activity not detected; mean ± SD; read-out: ACE Inhibition (IC50)
T1 construct: ACE from rabbit lung; purchased Sigma-Aldrich; host or cells: rabbit lung tissue
T1 sequence (P12822 34-1310): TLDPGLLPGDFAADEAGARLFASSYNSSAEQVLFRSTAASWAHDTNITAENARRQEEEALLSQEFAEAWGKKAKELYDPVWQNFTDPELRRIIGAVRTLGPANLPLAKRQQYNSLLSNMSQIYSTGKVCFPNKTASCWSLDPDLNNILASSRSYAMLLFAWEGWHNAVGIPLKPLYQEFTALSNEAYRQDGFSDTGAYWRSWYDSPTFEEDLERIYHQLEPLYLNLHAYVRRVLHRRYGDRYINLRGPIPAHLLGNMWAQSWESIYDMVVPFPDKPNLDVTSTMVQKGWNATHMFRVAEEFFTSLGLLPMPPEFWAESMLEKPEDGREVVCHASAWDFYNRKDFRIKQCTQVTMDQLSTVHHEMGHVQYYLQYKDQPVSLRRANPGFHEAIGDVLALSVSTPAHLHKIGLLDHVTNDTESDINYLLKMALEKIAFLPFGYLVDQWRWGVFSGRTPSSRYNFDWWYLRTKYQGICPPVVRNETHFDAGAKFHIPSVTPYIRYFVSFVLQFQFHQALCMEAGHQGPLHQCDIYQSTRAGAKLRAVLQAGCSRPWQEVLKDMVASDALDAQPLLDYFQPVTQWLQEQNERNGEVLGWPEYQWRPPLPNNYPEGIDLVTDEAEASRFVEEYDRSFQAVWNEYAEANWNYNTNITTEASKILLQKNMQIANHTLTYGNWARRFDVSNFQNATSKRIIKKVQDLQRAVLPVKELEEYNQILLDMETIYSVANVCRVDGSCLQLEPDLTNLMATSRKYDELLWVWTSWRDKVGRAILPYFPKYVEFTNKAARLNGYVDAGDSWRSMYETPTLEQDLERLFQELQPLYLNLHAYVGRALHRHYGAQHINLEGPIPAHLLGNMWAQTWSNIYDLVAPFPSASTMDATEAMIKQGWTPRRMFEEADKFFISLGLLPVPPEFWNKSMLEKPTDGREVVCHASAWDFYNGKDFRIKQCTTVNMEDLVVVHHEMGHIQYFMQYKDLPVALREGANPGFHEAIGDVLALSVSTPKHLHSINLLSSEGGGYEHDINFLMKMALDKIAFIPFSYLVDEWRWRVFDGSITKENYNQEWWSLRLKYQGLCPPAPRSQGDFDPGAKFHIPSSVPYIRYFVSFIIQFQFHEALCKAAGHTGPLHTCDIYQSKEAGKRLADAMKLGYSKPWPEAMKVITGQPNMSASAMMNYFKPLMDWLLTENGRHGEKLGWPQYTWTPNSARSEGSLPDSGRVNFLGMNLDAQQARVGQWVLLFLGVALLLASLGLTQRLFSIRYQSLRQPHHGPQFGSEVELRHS
Experimental: The in vitro ACE inhibitory activity of peptides was measured following the methodology described by Hayakari et al., with some modifications. […] It was incubated at 37 °C for 60 min. […] Three independent runs were performed for each sample.

SH-SY5Y cells = assay: Cell viability, MTT assay; type: cell-based, human; conditions: basal conditions, highest concentration 100 µM, 24 h; data not shown
Experimental: Human neuroblastoma SH-SY5Y cells were obtained from the American Type Culture Collection (ATCC, […], Rockville, MD, USA) and grown in RPMI-1640 medium supplemented with 10% FBS, 2 mM L-glutamine, 1 mM sodium pyruvate, 1 mM NEAA, and 50 μg/mL gentamicin in a humidified incubator containing 5% CO2 and 95% air at 37 °C.
The effects of pajuro-derived peptides on cell viability were determined using the MTT assay, following the protocol previously described by Palma-Albino et al.. SH-SY5Y cells were seeded (2 × 10^4 cells/well) onto 96-well plates in complete medium with 1% FBS and incubated at 37 °C for 16 h. After discarding the culture medium, the peptide sample was added (at concentration of 10, 25, and 100 µM), and the plate was incubated for 24 h. Upon removing the supernatant, a MTT solution (2 mg/mL) was added, and the plate was incubated for 60 min at 37 °C. After this time, the supernatant was discarded, and the formazan crystals were dissolved in dimetilsulfoxide (DMSO). The absorbance was measured at 570 nm in the Infinite M200 Pro plate reader (Tecan Group AG). Three independent runs were performed for each sample. The results were expressed as percentage of the control, considered as 100%.

DPP-IV [1] = molecular target: T2, DPP-IV (Homo sapiens, UniProt P27487); assay: DPP-IV inhibitory activity (Inhibitor Screening Kit MAK203); type: biochemical; conditions: n.d. = activity not detected; mean ± SD; read-out: DPP-IV Inhibition (IC50)
T2 construct: purchased Sigma-Aldrich MAK203
Experimental: The DPP-IV inhibitory activity was determined using the DPP-IV Inhibitor Screening Kit MAK203, according to the manufacturer’s instructions. […] After this time, the fluorescence was measured each 2 min at λexcitation and λemission of 360 and 460 nm, respectively, in the Infinite M200 Pro plate reader (Tecan Group AG). Three independent runs were performed for each sample. The results were expressed as IC50 value.

[2] = test system: α-glucosidase from Saccharomyces cerevisiae; assay: α-glucosidase inhibitory activity; type: biochemical; conditions: control acarbose at 10 mM
Experimental: The α-glucosidase inhibitory activity was determined as previously reported, with some modifications. […] Three independent runs were performed for each sample. The results were expressed as percentage of the negative control, considered as 100%.

[3] = test system: T3, α-amylase type VI-B from porcine pancreas; assay: α-amylase inhibition assay; type: biochemical; conditions: control acarbose at 10 mM
T3 construct: α-amylase type VI-B from porcine pancreas; purchased Sigma-Aldrich; host or cells: porcine pancreas tissue
Experimental: The α-amylase inhibition assay was carried out following the methods described by Subramanian et al. and Kumar et al., with some modifications. Then, 200 µL of mixture, containing α-amylase (800 mU), 0.125% starch, and peptide (100 µM) or standard (at different concentrations) in 0.1 M phosphate buffer (pH 6.9), was incubated at 37 °C for 30 min. After adding 100 µL of a solution containing 1% 3,5-dinitrosalicylic acid and 30% sodium potassium tartrate in 0.4 M NaOH, shaking, and incubating at 100 °C for 10 min, the absorbance was measured at 540 nm in an Infinite M200 Pro plate reader (Tecan Group AG). Three independent runs were performed for each sample. The results were expressed as percentage of the negative control, considered as 100%.

[4] = test system: T4, porcine pancreatic lipase type II; assay: Pancreatic lipase inhibitory activity; type: biochemical; conditions: control orlistat at 0.5 µM
T4 construct: porcine pancreatic lipase type II; purchased Sigma-Aldrich; host or cells: porcine pancreas tissue
Experimental: The pancreatic lipase inhibitory activity was determined following the protocols previously described, with some modifications. […] Three independent runs were performed for each sample. The results were expressed as percentage of the negative control, considered as 100%.

α-glucosidase = conditions: ref Vilcacundo et al. [46]; read-out: α-glucosidase inhibitory capacity (IC50); cited from earlier work
DPP-IV [5] = molecular target: T2, DPP-IV; conditions: literature value; cited from earlier work

T2 sequence (P27487 whole entry): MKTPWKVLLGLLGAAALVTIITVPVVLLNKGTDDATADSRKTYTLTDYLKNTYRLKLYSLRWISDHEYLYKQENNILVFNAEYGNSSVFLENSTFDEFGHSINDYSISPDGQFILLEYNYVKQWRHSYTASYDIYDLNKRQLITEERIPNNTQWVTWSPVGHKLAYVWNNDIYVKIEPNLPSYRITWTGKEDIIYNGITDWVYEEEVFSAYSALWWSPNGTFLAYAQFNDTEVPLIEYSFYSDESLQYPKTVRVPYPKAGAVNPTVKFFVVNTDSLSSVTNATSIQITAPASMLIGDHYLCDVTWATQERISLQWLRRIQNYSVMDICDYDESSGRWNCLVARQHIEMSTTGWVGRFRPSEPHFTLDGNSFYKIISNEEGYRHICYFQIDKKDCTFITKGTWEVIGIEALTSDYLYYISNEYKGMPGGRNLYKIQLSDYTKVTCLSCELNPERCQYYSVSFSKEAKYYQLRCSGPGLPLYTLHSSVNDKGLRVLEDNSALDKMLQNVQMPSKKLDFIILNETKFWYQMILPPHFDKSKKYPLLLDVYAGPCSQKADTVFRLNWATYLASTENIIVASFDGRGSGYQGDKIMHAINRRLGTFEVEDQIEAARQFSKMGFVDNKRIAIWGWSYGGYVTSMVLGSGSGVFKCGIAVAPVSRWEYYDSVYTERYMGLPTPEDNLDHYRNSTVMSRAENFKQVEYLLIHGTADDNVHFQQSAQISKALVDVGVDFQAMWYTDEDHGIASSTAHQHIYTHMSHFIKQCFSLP

| Molecule | IC50 (ACE from rabbit lung) | effect on cell viability (cytotoxicity) (SH-SY5Y cells) | IC50 (DPP-IV [1]) | also measured |
| --- | --- | --- | --- | --- |
| N[C@@H](Cc1ccc(O)cc1)C(=O)N1CCC[C@H]1C(=O)N[C@@H](CO)C(=O)N[C@@H](Cc1ccc(O)cc1)C(=O)O [YPSY] (H-YPSY-OH; N-terminus and C-terminus assumed) | 115.6 ± 0.26 µM | None of them, at the highest concentration assayed (100 µM), affected the cell viability | 32.6 ± 1.6 µM |  |
| C[C@H]1O[C@H](O[C@H]2[C@H](O)[C@@H](O)[C@@H](O[C@H]3[C@H](O)[C@@H](O)C(O)O[C@@H]3CO)O[C@@H]2CO)[C@H](O)[C@@H](O)[C@@H]1N[C@H]1C=C(CO)[C@@H](O)[C@H](O)[C@H]1O (stereo partly shown) [acarbose] |  |  |  | α-Glucosidase Inhibition [2]: 62.36 ± 0.54%; α-Amylase Inhibition [3]: 75.05 ± 1.55% |
| CCCCCCCCCCC[C@@H](C[C@@H]1OC(=O)[C@H]1CCCCCC)OC(=O)[C@H](CC(C)C)NC=O [orlistat] |  |  |  | Pancreatic lipase Inhibition [4]: 94.62 ± 0.90% |
| AALWE [AALWE] |  | None of them, at the highest concentration assayed (100 µM), affected the cell viability | 131 ± 2.34 µM |  |
| DGLGYY [DGLGYY] | 82.6 ± 0.58 µM | None of them, at the highest concentration assayed (100 µM), affected the cell viability |  |  |
| IQAEGGLT |  |  |  | IC50 (α-glucosidase): 110 µM |
| MFTGPY [MFTGPY] |  | None of them, at the highest concentration assayed (100 µM), affected the cell viability | 214 ± 2.83 µM |  |
| SQLPGW [SQLPGW] | 50.5 ± 0.95 µM | None of them, at the highest concentration assayed (100 µM), affected the cell viability |  |  |
| diprotin A |  |  |  | IC50 (DPP-IV [5]): 24.7 µM |
